In patent publication US12421276B2 (priority 2016, dated 2025):
“And” between values parts separate entries of the source, which are not always exact repeats. Equal values may be shown once. Read-outs that look alike come from different tables or passages of the source. Where a SMILES comes first, the peptide text is derived from it. [ ]: non-standard residue; d: D form. The star is where a group is joined. pY = N[CH](Cc1ccc(OP(=O)(O)O)cc1)C(=O)O; Hexanoyl = CCCCCC(=O)*; Ahx = NCCCCCC(=O)O

Assays:
[1] = Plasma stability study, human plasma; assay type: in vitro ADME; settings: Human plasma, 1 μM, 37° C.
Experimental: (§1) Human and rat plasma (K2 EDTA) were obtained from Bioreclamation.
(§2) Compounds were dissolved as 0.3 mM DMSO stocks. Compounds were transferred to the plasma at 1 μM on a 96-well deep well plate. After mixing, samples were transferred to several 96-well plates (25 μL/well), and incubated at 37° C. The extent of metabolism was calculated as the disappearance of the test compound, compared to the 0-min control reaction incubations. Propantheline was included as a positive control to verify assay performance.
(§3) At each of the time points, 150 μL of quench solution (50% acetonitrile, 50% methanol with 0.05% formic acid) with internal standard (bucetin for positive ESI mode and warfarin for negative ESI mode) was transferred to each well. Plates were sealed and centrifuged at 4° C. for 15 minutes at 4000 rpm. The supernatant was transferred to fresh plates for LC/MS/MS analysis.
(§4) Elution conditions are detailed in the table below.
(§5) Initial rates of the clearance of test compounds were calculated using linear regression of semi-log plot of % remaining of compounds versus time. The elimination rate constant (equals to −slope) of the linear regression was then used to determine t½ values.

[2] = Plasma stability study, rat plasma; assay type: in vitro ADME; settings: Rat plasma, 1 μM, 37° C.
Experimental: as §1, §2, §3, §4, §5

[3] = Metabolic stability in simulated intestinal fluid (SIF), pH 6.8, with or without pancreatin; assay type: in vitro ADME; settings: 5 μM, 37° C.; for half-life: simulated gi fluid
Experimental: (§6) Metabolic Stability in SIF and SGF (Simulated Intestinal and Gastric Fluid)
Buffer 3=SIF without enzyme
Buffer 4=SIF with 1% pancreatin
(§7) SIF was prepared freshly with 8.7 mM NaOH, 28.65 mM NaH2PO4, 105.85 mM NaCl, with a final pH of 6.8. SGF was prepared freshly with 34.2 mM NaCl, with a final pH of 1.2. Enzymes such as pepsin or pancreatin were added to some buffers. Human and rat plasma (K2 EDTA) were purchased from BioreclamationIVT.
(§8) Compounds were dissolved as 1.5 mM DMSO stocks. Compounds were transferred to SIF, SGF, or plasma at 5 μM on a 96-well deep well plate. After mixing, samples were transferred to several 96-well plates (25 μL/well), and incubated at 37° C. The extent of metabolism was calculated as the disappearance of the test compound, compared to the 0-min control reaction incubations. Candesartan Cilexetil and omeprazole were included as positive controls for SIF and SGF, respectively, to verify assay performance.
(§9) At each of the time points, 150 μL of quench solution (100% acetonitrile with 0.1% formic acid) with internal standard (bucetin for positive ESI mode and warfarin for negative ESI mode) was transferred to each well. Plates were sealed and centrifuged at 4° C. for 15 minutes at 4000 rpm. The supernatant was transferred to fresh plates for LC/MS/MS analysis.
as §4, §5

[4] = Metabolic stability in simulated gastric fluid (SGF), pH 1.2, with or without pepsin; assay type: in vitro ADME; settings: 5 μM, 37° C.; for half-life: simulated gi fluid
Experimental: as §6
Buffer 1=SGF without enzyme
Buffer 2=SGF with 0.32% pepsin
as §7, §8, §9, §4, §5

[5] = assay type: in vivo, rat; settings: rat, dosed as prodrug, 10 mg/kg equivalent of Base Structure
Experimental: • 1. Eight (8) male JVC SD rats (purchased from Charles River Lab) were monitored daily for body condition and health status during the 3-5 days acclimation period. The rats were randomly assigned into […] (n=4). • 2. […] The dosed rats were individually placed into a metabolic cage, and have access to food and water at all times. The urine from each rat was collected daily from the metabolic cages, and kept in dry ice. • 4. At predose (0 min), 5 min, 15 min, 30 min, 1 hr, 2 hr, 8 hr, and 24 hr post dosing, approximately 200 ul blood samples were collected from each rat and transferred to EDTA tubes. • 5. The blood samples in EDTA vials were centrifuged at 4° C. and 6,000 rpm for 10 minutes to generate ˜100 μl of plasma per sample. Blood samples were processed as quickly as possible and remain no longer than 2 min at room temperature and no longer than 15 minutes at 4° C. prior to processing. • 6. All samples were transferred for bioanalytic assay using LCMS

[6] = analyte Parent (Base Structure), Average
[7] = analyte Parent (Base Structure), Combined (average ± std. dev.)
[8] = analyte Parent (Base Structure), individual animals, 10 mg/kg
[9] = analyte Prodrug, Combined (average ± std. dev.)
[10] = analyte Prodrug, individual animals

## CCCCCC(=O)N1C(Cc2ccc(OP(=O)([O-])[O-])cc2)C(=O)N(C(C(=O)NCCCCCC(N)=O)C(C)CC)C12CCN(C)CC2.[Na+].[Na+] (stereo not drawn) [Compound 2]
[1]
  half-life: 7.08 h
  Plasma Stability (% Parent Remaining) 0 min: 100%
  Plasma Stability (% Parent Remaining) 60 min: 113%
  Plasma Stability (% Parent Remaining) 120 min: 90%
  Plasma Stability (% Parent Remaining) 240 min: 72%
[2]
  half-life: 18.1 h
  Plasma Stability (% Parent Remaining) 0 min: 100%
  Plasma Stability (% Parent Remaining) 60 min: 82%
  Plasma Stability (% Parent Remaining) 120 min: 77%
  Plasma Stability (% Parent Remaining) 240 min: 83%
[3]; +Pancreatin (1%)
  SIF Stability (pH 6.8) 0 min: 100%
  SIF Stability (pH 6.8) 60 min: 94%
  SIF Stability (pH 6.8) 120 min: 51%
  SIF Stability (pH 6.8) 240 min: 34%
[3]; pH 6.8, +Pancreatin (1%)
  half-life: 2.37 h
[3]; pH 6.8, −Pancreatin
  half-life: 13.4 h
[3]; −Pancreatin
  SIF Stability (pH 6.8) 0 min: 100%
  SIF Stability (pH 6.8) 60 min: 82%
  SIF Stability (pH 6.8) 120 min: 82%
  SIF Stability (pH 6.8) 240 min: 78%
[4]; +Pepsin (0.32%)
  SGF Stability (pH 1.2) 0 min: 100%
  SGF Stability (pH 1.2) 60 min: 94%
  SGF Stability (pH 1.2) 120 min: 89%
  SGF Stability (pH 1.2) 240 min: 73%
[4]; pH 1.2, +Pepsin (0.32%)
  half-life: 8.62 h
[4]; pH 1.2, −Pepsin
  half-life: 7.17 h
[4]; −Pepsin
  SGF Stability (pH 1.2) 0 min: 100%
  SGF Stability (pH 1.2) 60 min: 84%
  SGF Stability (pH 1.2) 120 min: 78%
  SGF Stability (pH 1.2) 240 min: 67%
[5]; [6]
  Cl/F_obs: 0.2421 (mg/kg)/(ng/ml)/h
  Vz/F_obs: 6.571 (mg/kg)/(ng/ml)
[5]; [7]
  Cl/F_obs: 0.2 ± 0.1 (mg/kg)/(ng/ml)/h
  Vz/F_obs: 6.6 ± 6.9 (mg/kg)/(ng/ml)
[5]; [8]
  Cl/F_obs: 0.1263 (mg/kg)/(ng/ml)/h and 0.2902 (mg/kg)/(ng/ml)/h and 0.3099 (mg/kg)/(ng/ml)/h
  Vz/F_obs: 0.6603 (mg/kg)/(ng/ml) and 4.961 (mg/kg)/(ng/ml) and 14.09 (mg/kg)/(ng/ml)
[5]; analyte Prodrug, Average
  AUMC 0-inf_obs: 0 ng/ml * h^2
  Cl/F_obs: 0 (mg/kg)/(ng/ml)/h
  Lambda_z: 0 h⁻¹
  Tlag: 0 h
  Tmax: 0 h
  Vz/F_obs: 0 (mg/kg)/(ng/ml)
[5]; [9]
  AUMC 0-inf_obs: 0 ng/ml * h^2
  Cl/F_obs: 0 (mg/kg)/(ng/ml)/h
  Lambda_z: 0 h⁻¹
  Tlag: 0 h
  Tmax: 0 h
  Vz/F_obs: 0 (mg/kg)/(ng/ml)
[5]; [10]
  AUMC 0-inf_obs: 0 ng/ml * h^2
  Cl/F_obs: 0 (mg/kg)/(ng/ml)/h
  Lambda_z: 0 h⁻¹
  Tlag: 0 h
  Tmax: 0 h
  Vz/F_obs: 0 (mg/kg)/(ng/ml)

## CCCCCC(=O)NC(Cc1ccc(OP(=O)([O-])O)cc1)C(=O)NC(C(=O)NCCCCCC(N)=O)C(C)CC.[Na+] (stereo not drawn) [Compound A30] (Hexanoyl-[pY]-Ile-[Ahx]-NH2; configuration not given here)
[1]
  Plasma Stability Half-Life: 1.4 h
  Plasma Stability (% Parent Remaining) 0 min: 100%
  Plasma Stability (% Parent Remaining) 60 min: 36%
  Plasma Stability (% Parent Remaining) 120 min: 20%
  Plasma Stability (% Parent Remaining) 240 min: 12%
[2]
  Plasma Stability Half-Life: 21.79 h
  Plasma Stability (% Parent Remaining) 0 min: 100%
  Plasma Stability (% Parent Remaining) 60 min: 88%
  Plasma Stability (% Parent Remaining) 120 min: 87%
  Plasma Stability (% Parent Remaining) 240 min: 86%
[3]; +Pancreatin (1%)
  SIF Stability (pH 6.8) Half-Life (min): 156.6 min
  SIF Stability (pH 6.8) 0 min: 100%
  SIF Stability (pH 6.8) 60 min: 70%
  SIF Stability (pH 6.8) 120 min: 51%
  SIF Stability (pH 6.8) 240 min: 34%
[3]; −Pancreatin
  SIF Stability (pH 6.8) Half-Life (min): 68.4 min
  SIF Stability (pH 6.8) 0 min: 100%
  SIF Stability (pH 6.8) 60 min: 43%
  SIF Stability (pH 6.8) 120 min: 22%
  SIF Stability (pH 6.8) 240 min: 8%
[4]; +Pepsin (0.32%)
  SGF Stability (pH 1.2) Half-Life (min): 248.3 min
  SGF Stability (pH 1.2) 0 min: 100%
  SGF Stability (pH 1.2) 60 min: 95%
  SGF Stability (pH 1.2) 120 min: 64%
  SGF Stability (pH 1.2) 240 min: 54%
[4]; −Pepsin
  SGF Stability (pH 1.2) Half-Life (min): 1713.6 min
  SGF Stability (pH 1.2) 0 min: 100%
  SGF Stability (pH 1.2) 60 min: 95%
  SGF Stability (pH 1.2) 120 min: 98%
  SGF Stability (pH 1.2) 240 min: 89%
